Laboratory results as given in PMC7093416, “Selective USP7 inhibition elicits cancer cell killing through a p53-dependent mechanism” (Scientific Reports, 2020).
Values joined by “and” are separate entries in the source; they are usually repeats but may differ in a detail not shown here. Equal entries are not always repeated.

Test system: panel of 484 cancer cell lines
Assay: PRISM cancer cell line profiling, 5 days
Type: cell-based
Parameters: Viability: scale not given here; AUC: unit not given beside the values
Experimental: Cancer cell line profiling was performed using the Broad’s PRISM platform. Cell treatment and data analysis were performed as described in Yu et al[42]. Raw Luminex signal was converted to AUC values for each cell line as described. The resulting AUC profile for each compound was modeled against DepMap using the limma package in R[71]. Because hotspot mutation analysis was performed against DepMap, TP53 annotations in Fig. 6c,d are directly from DepMap.

[1] = CAL12T_LUNG, pert_dose 6.10E-04
[2] = CAL27_UPPER_AERODIGESTIVE_TRACT, pert_dose 6.10E-04
[3] = CAL29_URINARY_TRACT, pert_dose 6.10E-04

COc1ccc(C2=N[C@@H](c3ccc(Cl)cc3)[C@@H](c3ccc(Cl)cc3)N2C(=O)N2CCNC(=O)C2)c(OC(C)C)c1 [Nutlin-3A]
Viability (CAKI1_KIDNEY, pert_dose 6.10E-04): 1.281 | AUC (CAL12T_LUNG): 1.284 | MFI CAL12T_LUNG [1]: 11558 and 13284 and 9249.5 and 12951.5 and 13183 | Viability [1]: 1.338 | AUC (CAL27_UPPER_AERODIGESTIVE_TRACT): 1.085 | MFI CAL27_UPPER_AERODIGESTIVE_TRACT [2]: 20059.5 and 19151.5 and 25415 and 19627.5 and 22725.5 | Viability [2]: 1.031 | AUC (CAL29_URINARY_TRACT): 1.177 | MFI CAL29_URINARY_TRACT [3]: 9011 and 8957 and 10277.5 and 8231.5 and 10904 | Viability [3]: 1.551 | AUC (CAL51_BREAST): 1.0736 | MFI CAL51_BREAST (CAL51_BREAST, pert_dose 6.10E-04): 12828 and 10989 and 10227 and 16366 and 8548.5 | AUC (CAL54_KIDNEY): 1.148 | Viability (CAL54_KIDNEY, pert_dose 6.10E-04): 1.061 | AUC (CAL62_THYROID): 1.139 | MFI CAL62_THYROID (CAL62_THYROID, pert_dose 6.10E-04): 19352 and 23281.5 and 23347 and 21690 and 18079 | AUC (CAL78_BONE): 1.142 | AUC (CAL120_BREAST): 1.092 | MFI CAL120_BREAST (CAL120_BREAST, pert_dose 6.10E-04): 15064 and 12880 and 13041 and 15017 and 12012.5 | AUC (CALU1_LUNG): 0.9872 | AUC (CALU6_LUNG): 1.11 | MFI CALU6_LUNG (CALU6_LUNG, pert_dose 6.10E-04): 19804 and 26726 and 21267 and 25781.5 and 28928.5 | AUC (CAMA1_BREAST): 1.153 | MFI CAMA1_BREAST (CAMA1_BREAST, pert_dose 6.10E-04): 1412 and 1959.5 and 1768 and 1670.5 and 1819.5 | AUC (CAOV3_OVARY): 1.212 | MFI CAOV3_OVARY (CAOV3_OVARY, pert_dose 6.10E-04): 4238 and 2774 and 4113 and 2696.5 and 4069 | AUC (CAPAN2_PANCREAS): 1.279 | AUC (CCFSTTG1_CENTRAL_NERVOUS_SYSTEM): 0.9997 | MFI CCFSTTG1_CENTRAL_NERVOUS_SYSTEM (CCFSTTG1_CENTRAL_NERVOUS_SYSTEM, pert_dose 6.10E-04): 2625 and 1957.5 and 2163 and 2860 and 1678.5 | AUC (CFPAC1_PANCREAS): 1.133 | MFI CFPAC1_PANCREAS (CFPAC1_PANCREAS, pert_dose 6.10E-04): 12988 and 12890.5 and 8831 and 16982.5 and 13585.5 | AUC (CHL1_SKIN): 1.101 | MFI CHL1_SKIN (CHL1_SKIN, pert_dose 6.10E-04): 25277 and 22527.5 and 16250 and 20018.5 and 22530 | AUC (CJM_SKIN): 1.181 | MFI CJM_SKIN (CJM_SKIN, pert_dose 6.10E-04): 9757.5 and 5484 and 9139.5 and 7090.5 and 8423 | AUC (CL34_LARGE_INTESTINE): 1.025 | MFI CL34_LARGE_INTESTINE (CL34_LARGE_INTESTINE, pert_dose 6.10E-04): 3669 and 4269 and 5343.5 and 2751 and 2702 | AUC (COLO668_LUNG): 1.1 | AUC (COLO679_SKIN): 0.88 | MFI COLO679_SKIN (COLO679_SKIN, pert_dose 6.10E-04): 6568.5 and 8262 and 8427 and 10413 and 7461 | AUC (COLO680N_OESOPHAGUS): 1.159 | MFI COLO680N_OESOPHAGUS (COLO680N_OESOPHAGUS, pert_dose 6.10E-04): 5933.5 and 4468 and 6131 and 5620 and 4657 | AUC (COLO741_SKIN): 1.078 | MFI COLO741_SKIN (COLO741_SKIN, pert_dose 6.10E-04): 3302 and 2497 and 3485 and 3755 and 2923 | AUC (COLO783_SKIN): 1.125 | MFI COLO783_SKIN (COLO783_SKIN, pert_dose 6.10E-04): 9292.5 and 11134.5 and 11660 and 10125 and 10684 | AUC (COLO792_SKIN): 0.8537 | MFI COLO792_SKIN (COLO792_SKIN, pert_dose 6.10E-04): 5216 and 3883.5 and 6906 and 3698 and 6181 | AUC (COLO800_SKIN): 0.9456 | MFI COLO800_SKIN (COLO800_SKIN, pert_dose 6.10E-04): 9562 and 9966.5 and 9539 and 8965 and 10824 | AUC (CORL23_LUNG): 1.082 | MFI CORL23_LUNG (CORL23_LUNG, pert_dose 6.10E-04): 18251 and 21912.5 and 23721 and 22738.5 and 19507.5 | AUC (CORL105_LUNG): 0.9293 | MFI CORL105_LUNG (CORL105_LUNG, pert_dose 6.10E-04): 3831.5 and 2259.5 and 3159 and 2363.5 and 2088.5 | AUC (COV362_OVARY): 1.112 | MFI COV362_OVARY (COV362_OVARY, pert_dose 6.10E-04): 17061 and 16771 and 18006 and 14276 and 17716.5 | AUC (COV434_OVARY): 0.499 | MFI COV434_OVARY (COV434_OVARY, pert_dose 6.10E-04): 2287 and 4116 and 4254.5 and 3247 and 3013 | AUC (DANG_PANCREAS): 1.183 | MFI DANG_PANCREAS (DANG_PANCREAS, pert_dose 6.10E-04): 3936.5 and 2389 and 3329.5 and 4098 and 2374 | AUC (DAOY_CENTRAL_NERVOUS_SYSTEM): 1.063 | MFI DAOY_CENTRAL_NERVOUS_SYSTEM (DAOY_CENTRAL_NERVOUS_SYSTEM, pert_dose 6.10E-04): 3341 and 3770 and 5391 and 3660 and 5169 | AUC (DBTRG05MG_CENTRAL_NERVOUS_SYSTEM): 0.8565 | MFI DBTRG05MG_CENTRAL_NERVOUS_SYSTEM (DBTRG05MG_CENTRAL_NERVOUS_SYSTEM, pert_dose 6.10E-04): 9502 and 12025.5 and 11037.5 and 11248 and 13043 | AUC (DETROIT562_UPPER_AERODIGESTIVE_TRACT): 1.165 | MFI DETROIT562_UPPER_AERODIGESTIVE_TRACT (DETROIT562_UPPER_AERODIGESTIVE_TRACT, pert_dose 6.10E-04): 11765 and 10497.5 and 16246.5 and 13989 and 13619 | AUC (DKMG_CENTRAL_NERVOUS_SYSTEM): 0.8274 | AUC (DMS273_LUNG): 1.073 | MFI DMS273_LUNG (DMS273_LUNG, pert_dose 6.10E-04): 11114.5 and 10196.5 and 9771 and 10022 and 13797 | AUC (DU145_PROSTATE): 1.079 | MFI DU145_PROSTATE (DU145_PROSTATE, pert_dose 6.10E-04): 21126.5 and 23687 and 17071 and 16938.5 and 18848 | AUC (DV90_LUNG): 0.8353 | MFI DV90_LUNG (DV90_LUNG, pert_dose 6.10E-04): 7893 and 6981 and 9620.5 and 7167 and 6096.5 | ∆ (AUC, TP53 mutation vs WT; decreased sensitivity) (DepMap TP53 mutation annotation): 0.0919 | AUC (EBC1_LUNG): 1.0742 | MFI EBC1_LUNG (EBC1_LUNG, pert_dose 6.10E-04): 12931 and 11768 and 13134.5 and 11101.5 and 10612 | AUC (ECGI10_OESOPHAGUS): 1.177 | AUC (EFM192A_BREAST): 1.203 | AUC (EFO21_OVARY): 1.106 | MFI EFO21_OVARY (EFO21_OVARY, pert_dose 6.10E-04): 6907 and 7302 and 6854 and 7260 and 4429 | AUC (EFO27_OVARY): 1.1574 | MFI EFO27_OVARY (EFO27_OVARY, pert_dose 6.10E-04): 9100.5 and 10537 and 7873 and 14276 and 9706 | AUC (EN_ENDOMETRIUM): 1.075 | AUC (ES2_OVARY): 1.089 | MFI ES2_OVARY (ES2_OVARY, pert_dose 6.10E-04): 18459 and 23432 and 12997.5 and 16216 and 13403 | AUC (ESS1_ENDOMETRIUM): 1.129 | MFI ESS1_ENDOMETRIUM (ESS1_ENDOMETRIUM, pert_dose 6.10E-04): 2916 and 2399 and 2841.5 and 2277 and 1505 | AUC (EWS502_BONE): 1.109 | MFI EWS502_BONE (EWS502_BONE, pert_dose 6.10E-04): 3099 and 3510.5 and 2209 and 3124 and 3278.5 | AUC (FADU_UPPER_AERODIGESTIVE_TRACT): 1.169 | MFI FADU_UPPER_AERODIGESTIVE_TRACT (FADU_UPPER_AERODIGESTIVE_TRACT, pert_dose 6.10E-04): 3959.5 and 4203 and 5203 and 4740.5 and 7313 | AUC (FTC133_THYROID): 1.156
